Test results reported in article PMC5804415, “Comparison of ^68Ga-DOTA-Siglec-9 and ^18F-Fluorodeoxyribose-Siglec-9: Inflammation Imaging and Radiation Dosimetry” (Contrast Media & Molecular Imaging, 2017).
Read-outs that look alike come from different tables or passages of the source. Positions of bridges follow the written chain, without caps; N, C: chain ends. Residues, ends and D or L forms follow the SMILES beside them. *: point of attachment. X1 = O=C(CON=C[C@H](O)[C@H](O)[C@H](O)CF)*; AEEA = NCCOCCOCC(=O)O

Key:
[1] = Ex vivo gamma counting biodistribution in atherosclerotic mice; conditions: mouse, total radioactivity, LDLR^−/−ApoB^100/100 mice (n = 19), 25 min after injection, mean ± SD
Experimental: Six-month-old atherosclerotic low-density lipoprotein receptor-deficient mice (weight, 27 ± 4.1 g; n = 19) expressing only apolipoprotein B100 (LDLR^−/−ApoB^100/100, strain #003000; Jackson Laboratory, Bar Harbor, ME, USA) were fed for 4 months with a Western-type diet. Two-month-old C57BL/6N mice (weight, 24 ± 2.2 g; n = 13) fed with a regular chow served as controls.
In PET studies, mice (19 atherosclerotic, 13 controls) were injected with 14 ± 4.4 MBq of ^18F-FDR-Siglec-9. Twenty-five minutes after ^18F-FDR-Siglec-9 injection, blood was drawn by cardiac puncture and the animals were killed. The thoracic aorta was excised and rinsed in saline to remove the blood. In addition, various other tissues were excised and patted dry. Samples of blood and urine were collected, and blood plasma was separated by centrifugation. […] The results were expressed as % ID/g and target-to-background ratio.

[2] = Human radiation dosimetry extrapolated from rat PET data (OLINDA/EXM); conditions: mean ± SD
Experimental: Absorbed doses of ^68Ga-DOTA-Siglec-9 and ^18F-FDR-Siglec-9 were calculated with the OLINDA/EXM version 1.0 software (organ level internal dose assessment and exponential modeling; Vanderbilt University, Nashville, TN, USA), which applies the MIRD schema (developed by the Medical Internal Radiation Dose committee of the Society of Nuclear Medicine) for radiation dose calculations in internal exposure. The software includes radionuclide information and selection of human body phantoms. The residence times derived from the rat data were integrated as the area under the time-activity curve. The residence times were converted into corresponding human values by multiplication with a factor to scale the organ and body weights: (WBody,rat/WOrgan,rat)×(WOrgan,human/WBody,human), where WBody,rat and WBody,human are the body weights of rat and human (a 70-kg male), respectively; and WOrgan,rat and WOrgan,human are the organ weights of rat and human (organ weights for a 70 kg male), respectively [14].

[3] = extrapolated from the rat PET data, OLINDA/EXM, 70 kg male
[4] = source organ, extrapolated from the rat PET data to 70 kg male

CC(C)C[C@@H]1NC(=O)CNC(=O)[C@H](CCCNC(=N)N)NC(=O)[C@H](Cc2c[nH]c3ccccc23)NC(=O)[C@H](CO)NC(=O)[C@H](CC(C)C)NC(=O)[C@H](CO)NC(=O)[C@H](CC(C)C)NC(=O)[C@H](CCCNC(=N)N)NC(=O)[C@H](C)NC(=O)[C@@H](NC(=O)COCCOCCNC(=O)CON=C[C@H](O)[C@H](O)[C@H](O)CF)CSSC[C@@H](C(=O)N2CCC[C@H]2C(=O)N[C@@H](CO)C(=O)N[C@@H](CCCCN)C(=O)O)NC(=O)[C@H](CC(C)C)NC(=O)[C@H]([C@@H](C)O)NC1=O [^18F-FDR-Siglec-9] ({X1-AEEA}-CARLSLSWRGLTLCPSK-OH; disulfide 1-14; N-terminus and C-terminus assumed)
tissue uptake at 25 min ([1]; LDLR^−/−ApoB^100/100 (strain #003000), liver, read-out: Ex vivo biodistribution, Liver): 3 ± 0.97 %ID/g | tissue uptake at 25 min ([1]; LDLR^−/−ApoB^100/100 (strain #003000), lungs, read-out: Ex vivo biodistribution, Lungs): 2.4 ± 1.1 %ID/g | tissue uptake at 25 min ([1]; LDLR^−/−ApoB^100/100 (strain #003000), muscle, read-out: Ex vivo biodistribution, Muscle): 0.62 ± 0.2 %ID/g | tissue uptake at 25 min ([1]; LDLR^−/−ApoB^100/100 (strain #003000), pancreas, read-out: Ex vivo biodistribution, Pancreas): 0.82 ± 0.28 %ID/g | tissue uptake at 25 min ([1]; LDLR^−/−ApoB^100/100 (strain #003000), plasma, read-out: Ex vivo biodistribution, Plasma): 5.7 ± 1.4 %ID/g | tissue uptake at 25 min ([1]; LDLR^−/−ApoB^100/100 (strain #003000), small intestine, read-out: Ex vivo biodistribution, Small intestine): 1.6 ± 0.49 %ID/g | tissue uptake at 25 min ([1]; LDLR^−/−ApoB^100/100 (strain #003000), spleen, read-out: Ex vivo biodistribution, Spleen): 1.1 ± 0.28 %ID/g | tissue uptake at 25 min ([1]; adipose tissue, WAT, 14 MBq, read-out: Ex vivo biodistribution, Adipose tissue, WAT): 0.72 ± 0.66 %ID/g | tissue uptake at 25 min ([1]; aorta, 14 MBq, read-out: Ex vivo biodistribution, Aorta): 0.93 ± 0.38 %ID/g | tissue uptake at 25 min ([1]; blood, 14 MBq, read-out: Ex vivo biodistribution, Blood): 3.2 ± 0.82 %ID/g | tissue uptake at 25 min ([1]; brain, 14 MBq, read-out: Ex vivo biodistribution, Brain): 0.15 ± 0.06 %ID/g | tissue uptake at 25 min ([1]; heart, 14 MBq, read-out: Ex vivo biodistribution, Heart): 0.62 ± 0.28 %ID/g | tissue uptake at 25 min ([1]; kidney, 14 MBq, read-out: Ex vivo biodistribution, Kidney): 44 ± 26 %ID/g | tissue uptake at 25 min ([1]; thymus, 14 MBq, read-out: Ex vivo biodistribution, Thymus): 0.69 ± 0.19 %ID/g | excreta dose per gram or mL at 25 min ([1]; urine, 14 MBq): 470 ± 370 %ID/g | Normalized number of disintegrations, Total body ([2]; extrapolated from the rat PET data to 70 kg male): 1.8 ± 0.32 h | Human dose equivalent estimate, Adrenals [2, 3]: 0.020 ± 0.0029 mSv/MBq | Human dose equivalent estimate, Brain [2, 3]: 0.010 ± 0.0018 mSv/MBq | Human dose equivalent estimate, Breasts [2, 3]: 0.0086 ± 0.0011 mSv/MBq | Human dose equivalent estimate, Gallbladder wall [2, 3]: 0.017 ± 0.0014 mSv/MBq | Human dose equivalent estimate, Heart wall [2, 3]: 0.0085 ± 0.00045 mSv/MBq | Human dose equivalent estimate, Kidneys [2, 3]: 0.29 ± 0.13 mSv/MBq | Human dose equivalent estimate, Liver [2, 3]: 0.021 ± 0.0061 mSv/MBq | Human dose equivalent estimate, Lower large intestine wall [2, 3]: 0.014 ± 0.00091 mSv/MBq | Human dose equivalent estimate, Lungs [2, 3]: 0.0062 ± 0.00016 mSv/MBq | Human dose equivalent estimate, Muscle [2, 3]: 0.0074 ± 0.00025 mSv/MBq | Human dose equivalent estimate, Osteogenic cells [2, 3]: 0.016 ± 0.0019 mSv/MBq | Human dose equivalent estimate, Ovaries [2, 3]: 0.014 ± 0.00083 mSv/MBq | Human dose equivalent estimate, Pancreas [2, 3]: 0.018 ± 0.0015 mSv/MBq | Human dose equivalent estimate, Red marrow [2, 3]: 0.012 ± 0.00032 mSv/MBq | Human dose equivalent estimate, Skin [2, 3]: 0.0080 ± 0.0008 mSv/MBq | Human dose equivalent estimate, Small intestine [2, 3]: 0.015 ± 0.00049 mSv/MBq | Human dose equivalent estimate, Spleen [2, 3]: 0.018 ± 0.0022 mSv/MBq | Human dose equivalent estimate, Stomach wall [2, 3]: 0.014 ± 0.00041 mSv/MBq | Human dose equivalent estimate, Testes [2, 3]: 0.010 ± 0.0010 mSv/MBq | Human dose equivalent estimate, Thymus [2, 3]: 0.010 ± 0.0013 mSv/MBq | Human dose equivalent estimate, Thyroid [2, 3]: 0.0094 ± 0.0014 mSv/MBq | Human dose equivalent estimate, Total body [2, 3]: 0.012 ± 0.00012 mSv/MBq | Human dose equivalent estimate, Upper large intestine wall [2, 3]: 0.015 ± 0.00045 mSv/MBq | Human dose equivalent estimate, Urinary bladder wall [2, 3]: 0.081 ± 0.032 mSv/MBq | Human dose equivalent estimate, Uterus [2, 3]: 0.017 ± 0.0012 mSv/MBq | Human effective dose estimate ([2]; extrapolated from the rat PET data, OLINDA/EXM, 70 kg man): 0.022 ± 0.0042 mSv/MBq | Normalized number of disintegrations, Heart wall [2, 4]: 0.0026 ± 0.0010 h | Normalized number of disintegrations, Kidneys [2, 4]: 0.47 ± 0.21 h | Normalized number of disintegrations, Liver [2, 4]: 0.11 ± 0.043 h | Normalized number of disintegrations, Lungs [2, 4]: 0.0029 ± 0.0011 h | Normalized number of disintegrations, Muscle [2, 4]: 0.081 ± 0.042 h | Normalized number of disintegrations, Urinary bladder wall [2, 4]: 0.15 ± 0.070 h
